According to publication PMC6790694, “Selective Modification of Ribosomally Synthesized and Post‐Translationally Modified Peptides (RiPPs) through Diels–Alder Cycloadditions on Dehydroalanine Residues” (Chemistry (Weinheim an Der Bergstrasse, Germany), 2019):
In brackets after ≈: the same amount, converted by molar mass.

Assays:
E. faecalis (ATCC29212) = assay: MIC assay, broth microdilution, E. faecalis; format: cell-based, Enterococcus faecalis; conditions: supplement table SI-21; E. faecalis LMG 08222 (ATCC29212); broth microdilution in CAMHB + 3 % v/v lysed horse blood, 37 °C, 20 h; tested three times in triplicates
Experimental: (§1) Moreover, variations in activity towards both strains and between the different site‐ and endo/exo isomers remained limited to a factor of 4. The activity of 3 also very closely resembles that of thiostrepton, showing that even removing part of the tail region has little effect on its activity.
(§2) Biological Activity Assays
(§3) Preparation of antimicrobial agents
(§4) Thiostrepton and its variants were dissolved and diluted in DMSO to a concentration of 640 µg/ml, and stored at -20 °C. Before use, they were diluted 20 fold in Mueller Hinton Broth 2 (CAMHB; cation-adjusted, Sigma-Aldrich).
(§5) Dilution of the thiostrepton compounds in CAMHB was done in 50 % volume steps to prevent precipitation.
(§6) Vancomycin for the quality controls was dissolved in MQ to a concentration of 256 mg/ml and stored at -20 °C.
(§7) It was diluted in CAMHB to a final concentration of 256 µg/ml before use.
(§8) Strains and growth conditions
(§9) The MIC values of thiostrepton and its variants were determined for Staphylococcus aureus LMG 10147 […]
(§10) from glycerol stocks on LB (Formedium™) and GM17 (Difco™) plates respectively. […]
(§11) Well 11, lacking the test compound, functions as a growth control and well 12 as a sterility control. […] To ensure MIC data reliability, MIC values for vancomycin were determined for every series of tests performed, as described […]

S. aureus (ATCC29213) = assay: MIC assay, broth microdilution, S. aureus; format: cell-based, Staphylococcus aureus; conditions: supplement table SI-21; S. aureus LMG 10147 (ATCC29213); broth microdilution in CAMHB, 37 °C, 20 h; tested three times in triplicates
Experimental: as §1, §2, §3, §4, §5, §6, §7, §8, §9, §10, §11

C=C(NC(=O)C(=C)NC(=O)c1csc(C2=N[C@@H]3c4csc(n4)[C@H]4NC(=O)c5csc(n5)[C@H]([C@](C)(O)[C@@H](C)O)NC(=O)[C@H]5CSC(=N5)/C(=C/C)NC(=O)[C@H]([C@@H](C)O)NC(=O)c5csc(n5)[C@]3(CC2)NC(=O)[C@H](C)NC(=O)C(=C)NC(=O)[C@H](C)NC(=O)[C@H]([C@@H](C)CC)N[C@@H]2C=Cc3c([C@H](C)O)cc(nc3[C@H]2O)C(=O)O[C@@H]4C)n1)C(N)=O [Thiostrepton, thiostrepton]
MIC against E. faecalis (VSE) (E. faecalis (ATCC29212)): 0.5 µg/mL | MIC against S. aureus (MSSA) (S. aureus (ATCC29213)): 0.5 µg/mL (≈ 0.3 µM)
